From patent publication US20240041042A1, “1-(PYRIDYL)-5-AZINYLPYRAZOLE DERIVATIVES, AND THEIR USE FOR CONTROL OF UNDESIRED PLANT GROWTH” (Bayer Aktiengesellschaft, priority 2020, published 2024)

Key:
Assay type in all cases: in vivo
Viola tricolor (VIOTR) = test: Pre-emergence herbicidal action against VIOTR
Procedure, shortened: (§1)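 Read-out is visual percent damage relative to untreated pots, with 100% meaning dead plants and 0% meaning no difference, assessed roughly three weeks after treatment. Compounds were applied pre-emergence to the covering soil at up to 320 g/ha.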

[1] = system: Polygonum convolvulus (POLCO); test: Post-emergence herbicidal action against POLCO
Procedure, shortened: (§2)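 Greenhouse plants sprayed at the one-leaf stage, 2–3 weeks after sowing, with WP or EC formulations plus 0.5% additive at 600 l/ha water. Activity rated visually after about 3 weeks versus untreated controls (100% = dead, 0% = like control), at 320 g/ha or lower.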

[2] = system: Pharbitis purpurea (PHBPU); test: Pre-emergence herbicidal action against PHBPU
Procedure, shortened: as §1

Setaria viridis (SETVI) = test: Pre-emergence herbicidal action against SETVI
Procedure, shortened: as §1

[3] = system: Echinochloa crus-galli (ECHCG); test: Post-emergence herbicidal action against ECHCG
Procedure, shortened: as §2

[4] = system: Amaranthus retroflexus (AMARE); test: Pre-emergence herbicidal action against AMARE; conditions: visual scoring after about 3 weeks vs untreated controls
Procedure, shortened: as §1

Lolium rigidum (LOLRI) [5] = test: Post-emergence herbicidal action against LOLRI
Procedure, shortened: as §2

Lolium rigidum (LOLRI) [6] = test: Pre-emergence herbicidal action against LOLRI
Procedure, shortened: as §1

[7] = system: Echinochloa crus-galli (ECHCG); test: Pre-emergence herbicidal action against ECHCG
Procedure, shortened: as §1

[8] = system: Alopecurus myosuroides (ALOMY); test: Post-emergence herbicidal action against ALOMY; conditions: visual rating about 3 weeks after treatment vs untreated controls (100% = plants have died, 0% = like control plants)
Procedure, shortened: as §2

Row | SMILES | Pre-emergence action against VIOTR in % (Viola tricolor (VIOTR); 320 g/ha, Viola tricolor) | Pre-emergence action against VIOTR in % (Viola tricolor (VIOTR); dosage 80 g/ha) | Post-emergence action against POLCO in % ([1]; dosage 80 g/ha) | Post-emergence action against POLCO in % ([1]; dosage 320 g/ha) | Pre-emergence action against PHBPU in % ([2]; dosage 320 g/ha) | Pre-emergence action against SETVI in % (Setaria viridis (SETVI); dosage 80 g/ha) | Pre-emergence action against SETVI in % (Setaria viridis (SETVI); dosage 320 g/ha) | Post-emergence action against ECHCG in % ([3]; dosage 80 g/ha) | Post-emergence action against ECHCG in % ([3]; dosage 320 g/ha) | Pre-emergence action against AMARE in % ([4]; 80 g/ha) | Pre-emergence action against AMARE in % ([4]; 320 g/ha) | Post-emergence action against LOLRI in % (Lolium rigidum (LOLRI) [5]; dosage 320 g/ha) | Pre-emergence action against LOLRI in % (Lolium rigidum (LOLRI) [6]; dosage 80 g/ha) | Pre-emergence action against LOLRI in % (Lolium rigidum (LOLRI) [6]; dosage 320 g/ha) | Pre-emergence action against ECHCG in % ([7]; dosage 80 g/ha) | Pre-emergence action against ECHCG in % ([7]; dosage 320 g/ha) | Post-emergence action against ALOMY in % ([8]; 80 g/ha) | Post-emergence action against ALOMY in % ([8]; 320 g/ha) | Pre-emergence action against PHBPU in % ([2]; dosage 80 g/ha) | Post-emergence action against LOLRI in % (Lolium rigidum (LOLRI) [5]; dosage 80 g/ha)
1 | O=C(O)COc1nn(-c2ncccc2F)c(-c2ccc(F)nc2)c1Br [Example I-08] | 100% | 100% | 90% | 90% | 80% | 90% | 100% | 80% | 90% | 100% | 100% | 90% | 80% | 100% | 80% | 100% | 100% | 100% |  | 
2 | COC(=O)[C@H](C)COC(=O)COc1nn(-c2ccccn2)c(-c2cncc(F)c2)c1Cl [Example I-192] | 100% | 80% |  | 80% | 90% | 90% | 100% | 90% | 90% | 80% | 100% | 80% | 80% | 100% | 90% | 100% | 90% | 90% | 90% | 
3 | COC(=O)C(C)COC(=O)[C@@H](C)Oc1nn(-c2ccccn2)c(-c2cncc(F)c2)c1Br (stereo partly shown) [Example I-188] | 100% | 100% | 80% | 80% | 90% | 100% | 100% | 80% | 90% | 100% | 100% | 90% | 100% | 100% | 100% | 100% | 80% | 90% | 80% | 90%
4 | COC(=O)COc1nn(-c2ncccc2F)c(-c2cncc(F)c2)c1C1CC1 [Example I-167] | 100% | 100% | 80% | 80% | 90% | 100% | 100% | 80% | 80% | 100% | 100% | 80% | 100% | 100% | 100% | 100% | 90% | 90% | 90% | 80%
5 | CCOC(=O)COc1nn(-c2nc(F)ccc2F)c(-c2cncc(F)c2)c1Br [Example I-193] | 100% | 100% | 80% | 80% | 90% | 100% | 100% | 90% | 90% | 80% | 100% | 90% |  | 90% | 90% | 100% | 90% | 100% | 80% | 
6 | CCOC(=O)[C@@H](C)Oc1nn(-c2ncccc2F)c(-c2ccc(F)nc2)c1C1CC1 [Example I-375] | 100% | 100% | 80% | 90% | 90% | 90% | 100% | 90% | 90% | 100% | 100% | 90% | 100% | 100% | 80% | 100% | 100% | 100% | 80% | 90%
7 | C[C@@H](Oc1nn(-c2ncccc2F)c(-c2ccc(F)nc2)c1I)C(=O)O [Example I-343] | 100% | 100% | 80% | 80% | 90% | 100% | 100% | 90% | 90% | 100% | 100% | 90% | 90% | 90% |  | 100% | 90% | 100% | 80% | 
8 | O=C(O)COc1nn(-c2ncccc2F)c(-c2cncc(F)c2)c1C1CC1 [Example I-175] | 100% | 100% | 80% | 80% | 90% | 90% | 100% | 80% | 80% | 100% | 100% | 80% | 100% | 100% | 100% | 100% | 90% | 90% | 80% | 80%
9 | COC(=O)[C@@H](C)Oc1nn(-c2nc(F)ccc2F)c(-c2cncc(F)c2)c1C1CC1 [Example I-171] | 100% | 100% | 80% | 90% | 90% | 100% | 100% | 80% | 80% | 100% | 100% | 90% | 100% | 100% | 100% | 100% | 90% | 90% | 80% | 80%
